Laboratory results taken from patent US20090326053A1, “DIAGNOSTIC USES OF FOLLISTATIN-LIKE 1” (TRUSTEES OF BOSTON UNIVERSITY, priority 2008, published 2009).

What was measured:
[1] = system: neonatal rat ventricular myocytes (NRVMs); experiment: TUNEL staining of NRVMs after hypoxia/reoxygenation (H/R); type: cell-based; conditions: inhibitor 10 μmol/L, 3 hours prior to H/R; P<0.05
Protocol: (§1) Myocyte cultures. Primary cultures of neonatal rat ventricular myocytes (NRVCs) were prepared and incubated in Dulbecco's modified Eagle's medium (DMEM) supplemented with 7% Fetal Calf Serum (FCS)^42. Eighteen to 24 hours after preparation, cells were transfected with adenoviral vector at a multiplicity of infection (MOI) of 50 in DMEM without serum for 16 hours and incubated in DMEM without serum for more than 12 hours. Hypoxic conditions were generated using a GasPak system (Becton Dickinson) as described previously. For hypoxia/reoxygenation studies, cells were exposed 12 hr hypoxia followed by 24 hr reoxygenation.
TUNEL staining. TUNEL staining for cultured cardiac myocytes was performed using the In Situ Cell Death detection kit (Roche) as described previously^2 with some modifications. In brief, cells are fixed by 4% paraformaldehyde in PBS, permeabilized with 0.1% Triton X-100 and incubated with anti-sarcomeric actinin antibody for 60 min followed by incubation with Cy3-conjugated anti-mouse IgG antibody. Cells were then incubated with TUNEL staining solution for 1 hr according to the manufacture's protocol. DAPI was used for nuclear staining. […] TUNEL positive myocytes were counted in randomly selected three fields of the slide and the experiments were repeated three times in duplicates.

[2] = system: neonatal rat ventricular myocytes (NRVMs); experiment: Nucleosome fragmentation ELISA in NRVMs; type: cell-based; conditions: inhibitor 10 μmol/L, 3 hours prior to H/R
Protocol: as §1
Detection of nucleosome fragmentation by ELISA. Nucleosome fragmentation was assessed by ELISA using Cell Death Detection kit (Roche) according to the manufacture's protocol. Cardiac myocytes were seeded in 96-well plates, transfected with adenoviral vector and exposed to H/R. In one assay, 8 wells are used for one group and assays are repeated three times. The extent of nucleosome fragmentation of each group was expressed as relative value in comparison with the value of control group (Ad-βgal transfected cells without H/R).

`N#CC(=C(/N)Sc1ccccc1N)/C(C#N)=C(\N)Sc1ccccc1N` [U0126] was tested. Which “protective action of Ad-Fstl1 on TUNEL positive cells after pre-incubation with inhibitor” value [1] did it give?
Its value is “partially attenuated”.

What about the “inhibitory effect of Fstl1 on nucleosome fragmentation after treatment with inhibitor” value [2] of the same molecule?
Its value is “significantly attenuated”.
